Test results published in ChEMBL document CHEMBL5233221, “Celastrol: Progresses in structure-modifications, structure-activity relationships, pharmacology and toxicology” (Eur J Med Chem, 2020).
≈ marks a conversion by molar mass, not a printed value.

Legend:
[1] = system: Bel-7402; experiment: Antiproliferative activity against human Bel-7402 cells assessed as cell growth inhibition; format: functional, cell-based
[2] = system: Staphylococcus aureus; experiment: Antibacterial activity against Staphylococcus aureus assessed as inhibition of bacterial growth; format: functional
[3] = Antiproliferative activity against human KATO III stomach cancer cell line assessed as cell growth inhibition; format: functional, cell-based
[4] = molecular target: T1, Cytochrome P450 3A2 (Rattus norvegicus, UniProt P05183); experiment: Binding affinity to rat CYP3A2
[5] = system: PC-3; experiment: Antiproliferative activity against human PC-3 cells assessed as cell growth inhibition; format: functional, cell-based
[6] = system: SAOS-2; experiment: Antiproliferative activity against human SAOS-2 cells assessed as cell growth inhibition; format: functional, cell-based
[7] = system: HepG2; experiment: Antiproliferative activity against human HepG2 cells assessed as cell growth inhibition; format: functional, cell-based
[8] = system: Erysiphales; experiment: Antifungal activity against powdery mildew assessed as preventive effects at 100 ug/ml relative to control; format: functional; settings: dose 100 µg/ml
[9] = system: NCI-H460; experiment: Antiproliferative activity against human NCI-H460 cells assessed as cell growth inhibition; format: functional, cell-based
[10] = system: HOS; experiment: Antiproliferative activity against human HOS cells assessed as cell growth inhibition; format: functional, cell-based
[11] = molecular target: UDP-glucuronosyltransferase 1A6 (Homo sapiens, UniProt P19224); experiment: Binding affinity to UGT1A6 (unknown origin) assessed as inhibition constant
[12] = system: SCC-4; experiment: Antiproliferative activity against human SCC-4 cells assessed as cell growth inhibition; format: functional, cell-based
[13] = Antiproliferative activity against human YCC-2 cells assessed as cell growth inhibition; format: functional, cell-based
[14] = system: SCC-38; experiment: Antiproliferative activity against human SCC-38 cells assessed as cell growth inhibition; format: functional, cell-based
[15] = system: MG-63; experiment: Antiproliferative activity against human MG-63 cells assessed as cell growth inhibition; format: functional, cell-based
[16] = system: Rhizoctonia solani; experiment: Antifungal activity against Rhizoctonia solani assessed as inhibition of fungal growth at 10 ug/ml relative to control; format: functional; set-up: scale not given: the % may be the effect or the level left; settings: dose 10 µg/ml
[17] = molecular target: T2, Cytochrome P450 1A2 (Rattus norvegicus, UniProt P04799); experiment: Binding affinity to rat CYP1A2
[18] = system: C3A; experiment: Antiproliferative activity against human C3A cells assessed as cell growth inhibition; format: functional, cell-based
[19] = Antiproliferative activity against human U373 MG cells assessed as cell growth inhibition; format: functional, cell-based, U-373MG ATCC
[20] = system: SK-MEL-28; experiment: Antiproliferative activity against human SK-MEL-28 cells assessed as cell growth inhibition; format: functional, cell-based
[21] = system: U2OS; experiment: Antiproliferative activity against human U2OS cells assessed as cell growth inhibition; format: functional, cell-based
[22] = system: MKN-45; experiment: Antiproliferative activity against human MKN-45 cells assessed as cell growth inhibition; format: functional, cell-based
[23] = system: LNCaP; experiment: Antiproliferative activity against human LNCaP cells assessed as cell growth inhibition; format: functional, cell-based
[24] = Toxicity in wild-type Zebrafish embryos measured after 48 hrs; set-up: species or system Danio rerio
[25] = system: A549; experiment: Antiproliferative activity against human A549 cells assessed as cell growth inhibition; format: functional, cell-based
[26] = Antiproliferative activity against dog CL-1 cells assessed as cell growth inhibition; format: functional, cell-based; settings: Canis lupus familiaris
[27] = Antiproliferative activity against human Renal cancer tumor cell line assessed as cell growth inhibition; format: functional, cell-based
[28] = system: AGS; experiment: Antiproliferative activity against human AGS cells assessed as cell growth inhibition; format: functional, cell-based
[29] = system: NCI-H929; experiment: Antiproliferative activity against human NCI-H929 cells assessed as cell growth inhibition; format: functional, cell-based
[30] = system: NCI-H1975; experiment: Antiproliferative activity against gefitinib-resistant human NCI-H1975 cells assessed as cell growth inhibition; format: functional, cell-based
[31] = system: Kasumi 1; experiment: Antiproliferative activity against human Kasumi 1 cells assessed as cell growth inhibition; format: functional, cell-based
[32] = Antiproliferative activity against human MM1.R cells assessed as cell growth inhibition; format: functional, cell-based; settings: MM.1R
[33] = system: RPMI-8226; experiment: Antiproliferative activity against doxorubicin resistant human RPMI-8226 cells assessed as cell growth inhibition; format: functional, cell-based
[34] = system: RPMI-8226; experiment: Antiproliferative activity against human RPMI-8226 cells assessed as cell growth inhibition; format: functional, cell-based
[35] = system: RPMI-8226; experiment: Antiproliferative activity against bortezomib resistant human RPMI-8226 cells assessed as cell growth inhibition; format: functional, cell-based
[36] = system: NSCLC; experiment: Antiproliferative activity against human NSCLC cells assessed as cell growth inhibition; format: functional, cell-based
[37] = system: KBM5; experiment: Antiproliferative activity against human KBM5 cells assessed as cell growth inhibition; format: functional, cell-based
[38] = system: NCI-H2228; experiment: Antiproliferative activity against human NCI-H2228 cells assessed as cell growth inhibition; format: functional, cell-based
[39] = system: SK-OV-3; experiment: Antiproliferative activity against human SK-OV-3 cells assessed as cell growth inhibition; format: functional, cell-based
[40] = Antiproliferative activity against human SKNO-1 cells assessed as cell growth inhibition; format: functional, cell-based
[41] = system: U-937; experiment: Antiproliferative activity against human U-937 cells assessed as cell growth inhibition; format: functional, cell-based
[42] = system: K562; experiment: Antiproliferative activity against human K562 cells assessed as cell growth inhibition; format: functional, cell-based
[43] = system: Erysiphales; experiment: Antifungal activity against powdery mildew assessed as curative effects at 100 ug/ml relative to control; format: functional; settings: dose 100 µg/ml
[44] = system: SW13; experiment: Antiproliferative activity against human SW13 cells assessed as cell growth inhibition; format: functional, cell-based
[45] = system: Mus musculus; experiment: Antiinflammatory activity in po dosed asthmatic mouse model; format: functional
[46] = system: MDA-MB-231; experiment: Antiproliferative activity against human MDA-MB-231 cells assessed as cell growth inhibition; format: functional, cell-based
[47] = Antiproliferative activity against human GLC-82 cells assessed as cell growth inhibition; format: functional, cell-based; settings: GLC82
[48] = molecular target: T3, Cytochrome P450 2C11 (Rattus norvegicus, UniProt P08683); experiment: Inhibition of rat Cyp2c11; format: ADME
[49] = Antiproliferative activity against human SPCA1 cells assessed as cell growth inhibition; format: functional, cell-based
[50] = Antiproliferative activity against human KU-7 cells assessed as cell growth inhibition; format: functional, cell-based; settings: KU7
[51] = system: Colletotrichum gloeosporioides; experiment: Antifungal activity against Glomerella cingulata assessed as inhibition of fungal growth at 10 ug/ml relative to control; format: functional; set-up: scale not given: the % may be the effect or the level left; settings: dose 10 µg/ml
[52] = system: U-251; experiment: Antiproliferative activity against human U-251MG cells assessed as cell growth inhibition; format: functional, cell-based
[53] = system: HCC827; experiment: Antiproliferative activity against human HCC827 cells assessed as cell growth inhibition; format: functional, cell-based
[54] = system: Huh-7; experiment: Antiproliferative activity against human Huh-7 cells assessed as cell growth inhibition; format: functional, cell-based
[55] = Toxicity in wild-type Zebrafish embryos measured after 72 hrs; set-up: species or system Danio rerio
[56] = system: KBM5; experiment: Antiproliferative activity against human KBM5 cells expressing Bcr-Abl harboring T315I mutant assessed as cell growth inhibition; format: functional, cell-based
[57] = system: MCF7; experiment: Antiproliferative activity against human MCF7 cells assessed as cell growth inhibition; format: functional, cell-based
[58] = system: NCI-H1299; experiment: Antiproliferative activity against human NCI-H1299 cells assessed as cell growth inhibition; format: functional, cell-based
[59] = Antiproliferative activity against human 95-D cells assessed as cell growth inhibition; format: functional, cell-based
[60] = Toxicity in wild-type Zebrafish embryos assessed as lethal effect; set-up: species or system Danio rerio; settings: in vivo
[61] = system: UMSCC1; experiment: Antiproliferative activity against human UMSCC1 cells assessed as cell growth inhibition; format: functional, cell-based
[62] = system: HeLa; experiment: Antiproliferative activity against human HeLa cells assessed as cell growth inhibition; format: functional, cell-based
[63] = molecular target: T2, Cytochrome P450 1A2; experiment: Inhibition of rat CYP1A2
[64] = system: MKN-28; experiment: Antiproliferative activity against human MKN-28 cells assessed as cell growth inhibition; format: functional, cell-based
[65] = system: DU-145; experiment: Antiproliferative activity against human DU-145 cells assessed as cell growth inhibition; format: functional, cell-based
[66] = system: LP-1; experiment: Antiproliferative activity against human LP-1 cells assessed as cell growth inhibition; format: functional, cell-based
[67] = molecular target: T1, Cytochrome P450 3A2; experiment: Inhibition of rat CYP3A2
[68] = system: A2780; experiment: Antiproliferative activity against human A2780 cells assessed as cell growth inhibition; format: functional, cell-based
[69] = Antiproliferative activity against human Nasopharyngeal carcinoma cell line assessed as cell growth inhibition; format: functional, cell-based
[70] = system: U-266; experiment: Antiproliferative activity against human U-266 cells assessed as cell growth inhibition; format: functional, cell-based
[71] = system: MM1.S; experiment: Antiproliferative activity against human MM1.S cells assessed as cell growth inhibition; format: functional, cell-based
[72] = system: NCI-H1975; experiment: Antiproliferative activity against human NCI-H1975 cells assessed as cell growth inhibition; format: functional, cell-based
[73] = molecular target: T3, Cytochrome P450 2C11; experiment: Binding affinity to rat Cyp2c11; format: ADME
[74] = system: NCI-H1650; experiment: Antiproliferative activity against human NCI-H1650 cells assessed as cell growth inhibition; format: functional, cell-based
[75] = Antiproliferative activity against human 253J-BV cells assessed as cell growth inhibition; format: functional, cell-based
[76] = molecular target: UDP-glucuronosyltransferase 2B7 (Homo sapiens, UniProt P16662); experiment: Binding affinity to UGT2B7 (unknown origin) assessed as inhibition constant
[77] = system: RCC4; experiment: Antiproliferative activity against human RCC4 cells assessed as cell growth inhibition; format: functional, cell-based

T3 sequence (P08683 whole entry): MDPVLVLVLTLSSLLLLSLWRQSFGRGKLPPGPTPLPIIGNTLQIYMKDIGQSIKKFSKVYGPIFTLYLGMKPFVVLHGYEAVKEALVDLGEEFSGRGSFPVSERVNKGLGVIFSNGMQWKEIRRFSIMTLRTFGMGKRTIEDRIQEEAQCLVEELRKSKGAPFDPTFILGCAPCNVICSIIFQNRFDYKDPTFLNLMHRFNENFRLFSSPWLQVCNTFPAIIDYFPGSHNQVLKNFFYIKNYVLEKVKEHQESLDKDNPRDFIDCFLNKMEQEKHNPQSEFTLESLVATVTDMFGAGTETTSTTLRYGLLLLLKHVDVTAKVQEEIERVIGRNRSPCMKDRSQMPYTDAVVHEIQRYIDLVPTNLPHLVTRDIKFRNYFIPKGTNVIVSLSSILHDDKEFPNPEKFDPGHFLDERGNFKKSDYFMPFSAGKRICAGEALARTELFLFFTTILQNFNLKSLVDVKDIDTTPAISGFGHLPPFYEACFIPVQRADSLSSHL
T2 sequence (P04799 whole entry): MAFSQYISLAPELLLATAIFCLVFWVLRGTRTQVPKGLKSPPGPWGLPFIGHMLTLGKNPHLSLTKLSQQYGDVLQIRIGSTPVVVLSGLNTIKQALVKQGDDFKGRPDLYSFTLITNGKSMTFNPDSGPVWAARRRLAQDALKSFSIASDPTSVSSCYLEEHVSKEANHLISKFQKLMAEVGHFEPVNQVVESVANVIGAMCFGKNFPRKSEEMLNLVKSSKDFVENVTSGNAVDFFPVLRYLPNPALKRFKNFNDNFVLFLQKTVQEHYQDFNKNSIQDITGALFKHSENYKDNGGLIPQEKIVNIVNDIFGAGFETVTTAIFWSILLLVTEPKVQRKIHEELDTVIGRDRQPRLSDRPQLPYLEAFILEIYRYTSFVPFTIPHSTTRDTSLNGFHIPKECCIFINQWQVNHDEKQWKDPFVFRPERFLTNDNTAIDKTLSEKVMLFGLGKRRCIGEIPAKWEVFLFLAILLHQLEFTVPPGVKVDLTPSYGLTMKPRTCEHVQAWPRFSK
T1 sequence (P05183 whole entry): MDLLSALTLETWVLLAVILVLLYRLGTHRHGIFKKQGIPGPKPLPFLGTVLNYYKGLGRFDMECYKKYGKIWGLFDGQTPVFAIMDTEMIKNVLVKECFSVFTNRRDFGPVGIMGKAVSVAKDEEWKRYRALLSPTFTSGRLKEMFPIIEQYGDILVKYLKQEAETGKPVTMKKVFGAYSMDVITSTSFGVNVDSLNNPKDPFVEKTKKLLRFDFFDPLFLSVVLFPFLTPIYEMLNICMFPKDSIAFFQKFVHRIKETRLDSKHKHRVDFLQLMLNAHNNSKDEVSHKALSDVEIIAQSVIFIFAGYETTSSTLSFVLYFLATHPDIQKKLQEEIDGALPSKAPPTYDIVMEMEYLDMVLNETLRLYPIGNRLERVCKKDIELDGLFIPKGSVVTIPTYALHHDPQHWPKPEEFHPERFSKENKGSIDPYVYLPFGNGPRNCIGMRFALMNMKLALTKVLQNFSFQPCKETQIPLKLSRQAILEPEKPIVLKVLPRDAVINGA
Chain of UDP-glucuronosyltransferase 2B7 (P16662 whole entry): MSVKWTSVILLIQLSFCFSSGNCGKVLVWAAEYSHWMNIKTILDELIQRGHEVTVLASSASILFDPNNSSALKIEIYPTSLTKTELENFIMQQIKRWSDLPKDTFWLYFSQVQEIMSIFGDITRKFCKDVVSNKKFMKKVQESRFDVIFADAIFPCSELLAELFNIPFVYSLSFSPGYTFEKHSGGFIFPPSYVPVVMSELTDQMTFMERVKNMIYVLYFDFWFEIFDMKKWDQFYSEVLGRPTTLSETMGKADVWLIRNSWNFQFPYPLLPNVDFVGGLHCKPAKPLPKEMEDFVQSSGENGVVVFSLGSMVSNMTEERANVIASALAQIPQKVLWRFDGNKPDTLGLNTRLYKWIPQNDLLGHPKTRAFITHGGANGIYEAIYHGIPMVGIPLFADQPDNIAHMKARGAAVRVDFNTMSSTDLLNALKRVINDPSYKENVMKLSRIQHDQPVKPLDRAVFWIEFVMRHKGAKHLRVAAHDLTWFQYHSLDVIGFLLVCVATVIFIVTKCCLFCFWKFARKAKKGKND
Chain of UDP-glucuronosyltransferase 1A6 (P19224 whole entry): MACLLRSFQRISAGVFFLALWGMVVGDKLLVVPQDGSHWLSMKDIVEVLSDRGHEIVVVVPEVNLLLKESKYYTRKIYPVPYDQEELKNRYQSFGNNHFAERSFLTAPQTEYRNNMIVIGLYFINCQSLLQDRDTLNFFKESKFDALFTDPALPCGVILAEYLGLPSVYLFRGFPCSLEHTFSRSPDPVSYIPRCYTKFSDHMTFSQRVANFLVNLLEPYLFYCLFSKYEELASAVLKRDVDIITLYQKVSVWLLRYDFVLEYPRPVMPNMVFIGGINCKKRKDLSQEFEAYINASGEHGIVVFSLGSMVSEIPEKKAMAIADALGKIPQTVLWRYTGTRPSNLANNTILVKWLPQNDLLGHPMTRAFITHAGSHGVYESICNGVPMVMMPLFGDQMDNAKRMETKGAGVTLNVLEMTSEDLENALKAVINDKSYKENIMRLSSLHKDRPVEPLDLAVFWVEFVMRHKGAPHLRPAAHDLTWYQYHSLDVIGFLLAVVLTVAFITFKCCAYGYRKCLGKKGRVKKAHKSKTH

COC(=O)[C@]1(C)CC[C@]2(C)CC[C@]3(C)C4=CC(c5cn(C)c6cc(Cl)ccc56)c5c(cc(OC)c(OC)c5C)[C@]4(C)CC[C@@]3(C)[C@@H]2C1 (stereo partly drawn)
IC50 [1]: 0.01 µM

COC(=O)[C@]1(C)CC[C@]2(C)CC[C@]3(C)C4=CC(c5c[nH]c6cc(C)ccc56)c5c(cc(OC)c(OC)c5C)[C@]4(C)CC[C@@]3(C)[C@@H]2C1 (stereo partly drawn)
IC50 [1]: 0.02 µM

CC1=C(O)C(=O)C=C2C1=CC=C1[C@@]2(C)CC[C@@]2(C)[C@@H]3C[C@](C)(C(=O)O)CC[C@]3(C)CC[C@]12C [CELASTROL]
MIC [2]: 0.5 µg/mL (≈ 1.11 µM)
IC50 [3]: 0.54 µM
Ki [4]: 14.2 µM
IC50 [5]: 1.52 µM
IC50 [6]: 1.05 µM
IC50 [7]: 2.4 µM
Activity [8]: 80.5%
IC50 [9]: 2.2 µM
IC50 [10]: 2.55 µM
Ki [11]: 0.49 µM
IC50 [12]: 2.8 µM
IC50 [13]: 0.5 µM
IC50 [14]: 1.7 µM
IC50 [15]: 1.97 µM
Activity [16]: 62.6%
Ki [17]: 39.2 µM
IC50 [18]: 3.6 µM
IC50 [19]: 2 µM
IC50 [20]: 1.72 µM
IC50 [21]: 2.11 µM
IC50 [22]: 3.4 µM
IC50 [23]: 1.76 µM
EC50 at 48 h [24]: 0.9 µM
IC50 [25]: 1.99 µM
IC50 [26]: 1.54 µM
IC50 [27]: 4.4 µM
IC50 [28]: 0.25 µM
IC50 [29]: 0.31 µM
IC50 [30]: 0.6 µM
IC50 [31]: 2.2 µM
IC50 [32]: 0.52 µM
IC50 [33]: 0.52 µM
IC50 [34]: 0.52 µM
IC50 [35]: 0.73 µM
IC50 [36]: 1.48 µM
IC50 [37]: 0.5 µM
IC50 [38]: 1.95 µM
IC50 [39]: 2.29 µM
IC50 [40]: 1.3 µM
IC50 [41]: 2 µM
IC50 [42]: 0.4 µM
Activity [43]: 45.4%
IC50 [44]: 0.1 µM
LD50 [45]: 20.5 mg/kg
IC50 [46]: 0.67 µM
IC50 [47]: 1.08 µM
IC50 [48]: 10.2 µM
IC50 [49]: 1.8 µM
IC50 [50]: 1.13 µM
Activity [51]: 62.6%
IC50 [52]: 0.69 µM
IC50 [53]: 1.3 µM
IC50 [54]: 4.7 µM
EC50 at 72 h [55]: 0.7 µM
IC50 [56]: 0.52 µM
IC50 [57]: 1.58 µM
IC50 [58]: 1.49 µM
IC50 [59]: 1.8 µM
LC50 [60]: 1.4 µM
IC50 [61]: 0.76 µM
IC50 [62]: 1.9 µM
IC50 [63]: 52.8 µM
IC50 [64]: 2.3 µM
IC50 [65]: 1.48 µM
IC50 [66]: 0.88 µM
IC50 [67]: 23.2 µM
IC50 [68]: 2.11 µM
IC50 [69]: 1 µM
IC50 [70]: 0.47 µM
IC50 [71]: 0.63 µM
IC50 [72]: 1.66 µM
Ki [73]: 7.05 µM
IC50 [74]: 0.79 µM
IC50 [75]: 0.93 µM
Ki [76]: 0.045 µM
IC50 [77]: 1.88 µM
